{
  "source": "paper PMC4550478",
  "about": "“Metronidazole-triazole conjugates: Activity against Clostridium difficile and parasites” (European Journal of Medicinal Chemistry, 2015)",
  "key": {"[1]": {"tested_on": "C. difficile NAP1/027 ATCC BAA-1803", "assay": "Metronidazole E-test on BAKHS, C. difficile ATCC BAA-1803", "format": "cell-based, Clostridium difficile", "settings": "Clostridioides difficile, ATCCBAA1803, BAKHS agar", "method": "(§1) Mid-log phase (OD600 =0.5- 0.6) culture was diluted to a 0.5 McFarland standard (OD600~ 0.1) in prereduced broth. The diluted culture was inoculated onto duplicate BAKHS agar plate using a cotton tip applicator. The inoculum was allowed to dry before the Metronidazole E-test strip (Metronidazole MZH 256-S30, bioMérieux Australia) was placed in duplicate on the surface of the agar. The agar plate was inverted and incubated for up to 96 hr. The MIC was read as the point at which the elliptical zone of inhibition intercepted the E-test strip at 24, 48 and 96 hr."}, "[2]": {"tested_on": "C. difficile NAP1/027 CD26A54_S", "assay": "Metronidazole E-test on BAKHS, C. difficile CD26A54_S", "format": "cell-based, Clostridium difficile", "settings": "Clostridioides difficile, BAKHS agar", "method": "as §1"}, "[3]": {"tested_on": "C. difficile NAP1/027 CD26A54_R", "assay": "Metronidazole E-test on BAKHS, C. difficile CD26A54_R", "format": "cell-based, Clostridium difficile", "settings": "BAKHS agar; for MIC: Clostridioides difficile", "method": "as §1"}, "[4]": {"tested_on": "H. pylori clinical isolate 13/25", "assay": "Metronidazole E-test, H. pylori 13/25", "format": "cell-based", "settings": "Helicobacter pylori", "method": "(§2) Helicobacter pylori strains, with a range of resistance levels to metronidazole (256 µg/ml, 64 µg/ml, 24 µg/ml, 2 µg/ml, and 0.04 µg/ml), were selected and obtained from Helicobacter Research Laboratory, University of Western Australia. The resistance strength to metronidazole was recorded according to eTest (bioMérieux). H. pylori strain 26695 was used as the control. H. pylori was maintained on the non-selective Columbia blood agar plates (CBA) (Columbia agar base Oxoid) with 5% horse blood and incubated at 37 °C and 10% CO2 for 48 hrs. […] Each of the H. pylori strains were harvested, OD600 calibrated to 0.3, and spotted in triplicate on CBA pre-mixed with the compound. The lowest concentration of antibiotic showing no growth was read as the MIC. The experiment was performed in duplicate."}, "[5]": {"tested_on": "H. pylori clinical isolate 98/285", "assay": "Metronidazole E-test, H. pylori 98/285", "format": "cell-based", "settings": "Helicobacter pylori", "method": "as §2"}, "[6]": {"tested_on": "H. pylori clinical isolate 13/61", "assay": "Metronidazole E-test, H. pylori 13/61", "format": "cell-based", "settings": "Helicobacter pylori", "method": "as §2"}, "[7]": {"tested_on": "C. difficile NAP1/027 CD26A54_R", "set-up": "method as in PMID 24400070", "settings": "cited from earlier work"}, "[8]": {"settings": "in vivo; cited from earlier work"}},
  "data": [
    {"smiles": "Cc1ncc([N+](=O)[O-])n1CCO", "note": "[Compound 1, metronidazole]", "values": [
      {"measurement": "MIC", "setting": "[1]; 24 hrs", "value": 2, "unit": "µg/mL"},
      {"measurement": "MIC", "setting": "[1]; 48 hrs", "value": 2, "unit": "µg/mL"},
      {"measurement": "MIC", "setting": "[1]; 96 hrs", "value": 2, "unit": "µg/mL"},
      {"measurement": "MIC", "setting": "[2]; 24 hrs", "value": 6, "unit": "µg/mL"},
      {"measurement": "MIC", "setting": "[2]; 48 hrs", "value": 8, "unit": "µg/mL"},
      {"measurement": "MIC", "setting": "[2]; 96 hrs", "value": 8, "unit": "µg/mL"},
      {"measurement": "Metronidazole E-test MIC CD26A54_R", "setting": "[3]; 48 hrs", "value": 48, "unit": "µg/mL"},
      {"measurement": "MIC", "setting": "[3]; 24 hrs", "value": 32, "unit": "µg/mL"},
      {"measurement": "MIC", "setting": "[3]; 48 hrs", "value": 48, "unit": "µg/mL"},
      {"measurement": "MIC", "setting": "[3]; 96 hrs", "value": 48, "unit": "µg/mL"},
      {"measurement": "MIC", "setting": "[4]", "value": 2, "unit": "µg/mL"},
      {"measurement": "MIC", "setting": "[5]", "value": 24, "unit": "µg/mL"},
      {"measurement": "MIC", "setting": "[6]", "value": 256, "unit": "µg/mL"},
      {"measurement": "Metronidazole MIC by E-test, MtzR C. difficile, reported by Chong et al.", "setting": "[7]", "value": "> 32", "unit": "µg/mL"},
      {"measurement": "oral bioavailable", "setting": "[8]", "value": 100, "unit": "%"}
    ]}
  ]
}
